From patent US8617872B2, “Compositions for culturing spirochetes” (priority 2000, dated 2013)

Legend:
Assay type in all cases: cell-based
Treponema isolate = assay: Antimicrobial susceptibility test (MICROSCAN plates) of a patient's Treponema isolate; conditions: Treponema infected patient's isolate; MICROSCAN plates, 35° C., 16-20 hours
Experimental: For susceptibility testing, the organisms harvested could be assayed using any suitable susceptibility assay (See, Example 7). In some embodiments of the present invention, MICROSCAN antibiotic susceptibility plates were inoculated and incubated. Following incubations, plates were scanned for growth and respective sensitivity reaction. […] For the results to be considered reliable, the no growth of organisms was accepted in the negative control well, while the positive control well had to have sufficient growth to be read. In some embodiments of the present invention, to confirm the presence or absence of growing spirochetes in the growth well, aliquots from the growth well were reinoculated with fresh growth media and after an incubation time (e.g., 7-10 days) the presence of the organisms was confirmed (e.g., by phase contrast microscopy or direct fluorescent antibody staining).
(§1) This example describes the preparation of a pellet used for antimicrobial susceptibility testing of a culture sample. The procedure begins with a culture (e.g., prepared in the manner described in Example 2), where serum from a patient is inoculated in GSI-1 media and allowed to grow. In order to form pellet, an aliquot of this culture sample is placed in a microcentrifuge tube along with 10% SDS solution, and centrifuged at 14,000 g to disrupt the spirochetes and maximize the number of available eptiopic sites. The disrupted spirochetes were then cultured in an alternative growth medium made up of one part GSI-1 medium, one part 6.5% lactalbumin hydrolysate, one part 2% brain heart infusion, one part 10% pluronic fluid, and one part of the isolated (disrupted) spirochetes. This inoculated alternative growth medium was then allowed to incubate in the closed micro centrifuge tube until a distinctive pellet was observed (typically 7-14 days).
This example describes an antimicrobial susceptibility test performed for a human patient. The patient had previously been testing using GSI-1 medium (e.g., as described in Example 2) for the presence of any spirochetes. […] This culture sample was then transferred to a microcentrifuge tube, and a pellet for antimicrobial susceptibility testing was prepared as described in Example 6.
(§2) Following the observation of pellet formation, the tube was vortexed and incubated at 35° C. until a MacFarlane standard of between 8 to 12% turbidity was achieved. MICROSCAN antibiotic susceptibility microtiter plates were then inoculated with (e.g., 110 μl of) inoculum and allowed to incubate at 35° C. for 16-20 hours. The microtiter plates were then scanned for growth and respective sensitivity reaction (both the control well and the growth well). Table 2 below lists the various antimicrobials tested with this sample and whether growth of the organism was inhibited (susceptible) or whether the growth of the organism was not inhibited (resistant).

Tatumella = assay: Antibiotic susceptibility test (MICROSCAN or disc diffusion), control organism Tatumella; conditions: total isolates 2
Source text: as §1, §2
(§3) This Example describes the results for susceptibility tests that were performed on a large number of patient samples positive for either Borrelia or Leptospira. […] The results presented in Table 3 reveal the varied response of different types of spirochetes to different antibiotics.

Pseudomonas = assay: Antibiotic susceptibility test (MICROSCAN or disc diffusion), control organism Pseudomonas; conditions: total isolates 1
Leptospira [1] = assay: Susceptibility testing of Leptospira isolated from a patient with symptoms of multiple sclerosis; conditions: for Antibiotic Susceptibility Results, SERUM: Leptospira culture from serum of multiple sclerosis patient; for Antibiotic Susceptibility Results, URINE: Leptospira culture from urine of multiple sclerosis patient
Experimental: This example describes the preparation of a pellet used for antimicrobial susceptibility testing of a culture sample. […] In order to form pellet, an aliquot of this culture sample is placed in a microcentrifuge tube along with 10% SDS solution, and centrifuged at 14,000 g to disrupt the spirochetes and maximize the number of available eptiopic sites. […] This inoculated alternative growth medium was then allowed to incubate in the closed micro centrifuge tube until a distinctive pellet was observed (typically 7-14 days).
MICROSCAN antibiotic susceptibility microtiter plates were then inoculated with (e.g., 110 μl of) inoculum and allowed to incubate at 35° C. for 16-20 hours. The microtiter plates were then scanned for growth and respective sensitivity reaction (both the control well and the growth well).

E. coli = assay: Antibiotic susceptibility test (MICROSCAN or disc diffusion), control organism E. coli; conditions: total isolates 1
Y. entero gp. = assay: Antibiotic susceptibility test (MICROSCAN or disc diffusion), control organism Y. entero gp.; conditions: total isolates 1
A. lwoffii = assay: Antibiotic susceptibility test (MICROSCAN or disc diffusion), control organism A. lwoffii; conditions: total isolates 1
Borrelia = assay: Antibiotic susceptibility test (MICROSCAN or disc diffusion) of patient samples positive for Borrelia; conditions: total isolates 519
Source text: as §1, §2, §3

Leptospira [2] = assay: Susceptibility testing of Leptospira isolated from a patient with symptoms of rheumatoid arthritis; conditions: for Antibiotic Susceptibility Results, SERUM: Leptospira culture from serum of rheumatoid arthritis patient; for Antibiotic Susceptibility Results, URINE: Leptospira culture from urine of rheumatoid arthritis patient
Source text: as §1
as §2, with “well).” for “well). Table 2 below lists the various antimicrobials tested with this sample and whether growth of the organism was inhibited (susceptible) or whether the growth of the organism was not inhibited (resistant).”
This Example describes the diagnosis and treatment of a human patient with symptoms of rheumatoid arthritis. In particular, serum and urine samples from this patient were initially cultured on GSI-1 (e.g., as described in Example 2), and screened for the presence of spirochetes (e.g., as described in Example 3). […] These cultures were then used to produce pellets for antimicrobial susceptibility testing (e.g., as described in Example 6). The antimicrobial susceptibility tests were then carried out on each sample (e.g., as described in Example 7) with the antimicrobials listed below in Table 5.

Leptospira [3] = assay: Antibiotic susceptibility test (MICROSCAN or disc diffusion) of patient samples positive for Leptospira; conditions: total isolates 276
Source text: as §1, §2, §3

Row | Molecule | RESULT (antibiotic susceptibility) (Treponema isolate) | Antibiotic Susceptibility Test Results, Tatumella (Tatumella) [%] | Antibiotic Susceptibility Test Results, Pseudomonas (Pseudomonas) [%] | Antibiotic Susceptibility Results, SERUM (Leptospira [1]) | Antibiotic Susceptibility Results, URINE (Leptospira [1]) | Antibiotic Susceptibility Test Results, E. coli (E. coli) [%] | Antibiotic Susceptibility Test Results, Y. entero gp. (Y. entero gp.) [%] | Antibiotic Susceptibility Test Results, A. lwoffii (A. lwoffii) [%] | Antibiotic Susceptibility Test Results, Borrelia (Borrelia) [%] | Antibiotic Susceptibility Results, SERUM (Leptospira [2]) | Antibiotic Susceptibility Results, URINE (Leptospira [2]) | Antibiotic Susceptibility Test Results, Leptospira (Leptospira [3]) [%]
1 | NC[C@H]1O[C@H](O[C@H]2[C@H](O)[C@@H](O[C@H]3O[C@H](CO)[C@@H](O)[C@H](N)[C@H]3O)[C@H](N)C[C@@H]2N)[C@H](N)C[C@@H]1O [Tobramycin] | Intermediate | 100 | 100 | Resistant | Resistant | 100 | 100 | 100 | 81 | Resistant | Resistant | 84
2 | NCC[C@H](O)C(=O)N[C@@H]1C[C@H](N)[C@@H](O[C@H]2O[C@H](CN)[C@@H](O)[C@H](O)[C@H]2O)[C@H](O)[C@H]1O[C@H]1O[C@H](CO)[C@@H](O)[C@H](N)[C@H]1O [Amikacin] | – | 100 | 100 | Resistant | Resistant | 100 | 100 | 100 | 84 | Resistant | Resistant | 85
3 | C[C@H]1COc2c(N3CCN(C)CC3)c(F)cc3c(=O)c(C(=O)O)cn1c23 [Levofloxacin] | – | 100 | 100 | Susceptible | Susceptible | 100 | 100 | 100 | 86 | Susceptible | Susceptible | 83
4 | CC(C)(O/N=C(\C(=O)N[C@@H]1C(=O)N2C(C(=O)[O-])=C(C[n+]3ccccc3)CS[C@H]12)c1csc(N)n1)C(=O)O [Ceftazidime] | – | 0 | 100 | Resistant | Resistant | 100 | 100 | 100 | 36 | Resistant | Resistant | 41
5 | Gentamicin | Resistant | 100 | 100 | Resistant | Resistant | 100 | 100 | 100 | 89 | Resistant | Resistant | 86
6 | O=C(O)c1cn(C2CC2)c2cc(N3CCNCC3)c(F)cc2c1=O [Ciprofloxacin] | Resistant | 100 | 100 | Susceptible | Susceptible | 100 | 100 | 100 | 84 | Susceptible | Susceptible | 78
7 | CCN1CCN(C(=O)N[C@@H](C(=O)N[C@@H]2C(=O)N3[C@@H]2SC(C)(C)[C@@H]3C(=O)O)c2ccccc2)C(=O)C1=O [Piperacillin] | Susceptible | 100 | 100 | Resistant | Resistant | 100 | 100 | 100 | 60 | Resistant | Resistant | 55
8 | Ticarcillin/Clavulanate | Susceptible | 100 | 100 | Resistant | Resistant | 100 | 100 | 100 | 79 | Resistant | Resistant | 75
9 | C[C@@H](O)[C@H]1C(=O)N2C(C(=O)O)=C(S[C@@H]3CN[C@H](C(=O)N(C)C)C3)[C@H](C)[C@H]12 [Meropenem] | Resistant | 100 | 100 | Resistant | Resistant | 100 | 100 | 100 | 82 | Resistant | Resistant | 75
10 | CO/N=C(\C(=O)N[C@@H]1C(=O)N2C(C(=O)O)=C(COC(C)=O)CS[C@H]12)c1csc(N)n1 [Cefotaxime] | – | 0 | 100 | Resistant | Resistant | 100 | 100 | 100 | 60 | Resistant | Resistant | 64
